ChEMBL document CHEMBL1201862, “PubChem BioAssay data set” (2004)
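A five-concentration, 48-hour dose response in 96-well plates underlies each endpoint, interpolated linearly between surrounding concentrations. Abbreviation: GI50, concentration required for 50% inhibition of growth.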 The source made the active and inactive calls. Cut-off read from the data, not from the text of the source: active = GI50 up to about 1.1 µM and inactive = higher.

Key:
Assay in all cases: NCI-60 cell line screen, 48 h
HT-29 = tested on: HT-29
SF-268 = tested on: SF-268
DLD-1 = tested on: DLD-1
786-0 = tested on: 786-0
SK-MEL-28 = tested on: SK-MEL-28
SK-MEL-2 = tested on: SK-MEL-2
OVCAR-8 = tested on: OVCAR-8
NCI-H522 = tested on: NCI-H522
HCT-116 = tested on: HCT-116
K562 = tested on: K562
SW-620 = tested on: SW-620
CCRF-CEM = tested on: CCRF-CEM
UO-31 = tested on: UO-31
MOLT-4 = tested on: MOLT-4
SNB-19 = tested on: SNB-19
M14 = tested on: M14
HCT-15 = tested on: HCT-15
NCI-H460 = tested on: NCI-H460
KM12 = tested on: KM12
SF-295 = tested on: SF-295
HL-60 = tested on: HL-60
COLO 205 = tested on: COLO 205
TK-10 = tested on: TK-10
XF498 = tested on: XF498
RXF 631 = tested on: RXF 631
U-251 = tested on: U-251
HOP-18 = tested on: HOP-18
HOP-62 = tested on: HOP-62
SNB-75 = tested on: SNB-75
M19-MEL = tested on: M19-MEL
EKVX = tested on: EKVX
OVCAR-3 = tested on: OVCAR-3
NCI-H226 = tested on: NCI-H226
SR = tested on: SR
OVCAR-4 = tested on: OVCAR-4
ACHN = tested on: ACHN
SK-OV-3 = tested on: SK-OV-3
NCI-H23 = tested on: NCI-H23
SF-539 = tested on: SF-539
RPMI-8226 = tested on: RPMI-8226
DMS-114 = tested on: DMS-114
A549 = tested on: A549
SK-MEL-5 = tested on: SK-MEL-5
RXF 393 = tested on: RXF 393
UACC-257 = tested on: UACC-257
KM-20L2 = tested on: KM-20L2
Malme-3M = tested on: Malme-3M
HOP-92 = tested on: HOP-92
SN12C = tested on: SN12C
IGROV-1 = tested on: IGROV-1
UACC-62 = tested on: UACC-62
CAKI-1 = tested on: CAKI-1
LXFL 529 = tested on: LXFL 529
DMS-273 = tested on: DMS-273
OVCAR-5 = tested on: OVCAR-5
A498 = tested on: A498
HCC 2998 = tested on: HCC 2998
LOX IMVI = tested on: LOX IMVI

Structure (SMILES): Brc1ccc(/N=c2/nc3ccccn3n3nc(-c4ccccc4)cc23)cc1
- GI50 (HT-29): 75.5 µM (inactive)
- GI50 (SF-268): 41.6 µM (inactive)
- GI50 (DLD-1): 14.7 µM (inactive)
- GI50 (786-0): 19.9 µM (inactive)
- GI50 (SK-MEL-28): 36 µM (inactive)
- GI50 (SK-MEL-2): 9.57 µM (inactive)
- GI50 (OVCAR-8): 28.3 µM (inactive)
- GI50 (NCI-H522): 17.3 µM (inactive)
- GI50 (HCT-116): 52.6 µM (inactive)
- GI50 (K562): > 100 µM (inactive)
- GI50 (SW-620): 63.2 µM (inactive)
- GI50 (CCRF-CEM): > 100 µM (inactive)
- GI50 (UO-31): > 100 µM (inactive)
- GI50 (MOLT-4): > 100 µM (inactive)
- GI50 (SNB-19): 28.5 µM (inactive)
- GI50 (M14): 13.7 µM (inactive)
- GI50 (HCT-15): 30.5 µM
- GI50 (NCI-H460): 45.1 µM (inactive)
- GI50 (KM12): 39.9 µM (inactive)
- GI50 (SF-295): 34.8 µM (inactive)
- GI50 (HL-60): > 100 µM (inactive)
- GI50 (COLO 205): > 100 µM (inactive)
- GI50 (TK-10): 29.8 µM (inactive)
- GI50 (XF498): 10.3 µM (inactive)
- GI50 (RXF 631): 31.6 µM (inactive)
- GI50 (U-251): 29 µM (inactive)
- GI50 (HOP-18): 29.6 µM (inactive)
- GI50 (HOP-62): 15 µM (inactive)
- GI50 (SNB-75): 52.4 µM (inactive)
- GI50 (M19-MEL): 43.6 µM (inactive)
- GI50 (EKVX): 47.6 µM (inactive)
- GI50 (OVCAR-3): 22.1 µM (inactive)
- GI50 (NCI-H226): 45.2 µM (inactive)
- GI50 (SR): > 100 µM (inactive)
- GI50 (OVCAR-4): 5.89 µM (inactive)
- GI50 (ACHN): 26.2 µM (inactive)
- GI50 (SK-OV-3): > 100 µM (inactive)
- GI50 (NCI-H23): 55.3 µM (inactive)
- GI50 (SF-539): 28.3 µM (inactive)
- GI50 (RPMI-8226): > 100 µM (inactive)
- GI50 (DMS-114): 99.8 µM (inactive)
- GI50 (A549): 56.5 µM (inactive)
- GI50 (SK-MEL-5): > 100 µM (inactive)
- GI50 (RXF 393): 14.9 µM (inactive)
- GI50 (UACC-257): 48.4 µM (inactive)
- GI50 (KM-20L2): 66.4 µM (inactive)
- GI50 (Malme-3M): 4.34 µM (inactive)
- GI50 (HOP-92): 17.8 µM (inactive)
- GI50 (SN12C): 81.8 µM (inactive)
- GI50 (IGROV-1): > 100 µM (inactive)
- GI50 (UACC-62): 15.1 µM (inactive)
- GI50 (CAKI-1): 15.9 µM (inactive)
- GI50 (LXFL 529): 56.8 µM (inactive)

Structure (SMILES): Cc1nc(Nc2ccc([N+](=O)[O-])cc2)sc1C(=O)/C=C/c1ccc(N(C)C)cc1
- GI50 (HT-29): > 100 µM (inactive)
- GI50 (DMS-273): 77.3 µM (inactive)
- GI50 (SF-268): > 100 µM (inactive)
- GI50 (DLD-1): 60.5 µM (inactive)
- GI50 (786-0): > 100 µM (inactive)
- GI50 (SK-MEL-28): > 100 µM (inactive)
- GI50 (SK-MEL-2): 64.3 µM (inactive)
- GI50 (OVCAR-8): 73.3 µM (inactive)
- GI50 (NCI-H522): 19.4 µM (inactive)
- GI50 (K562): 37.8 µM (inactive)
- GI50 (SW-620): > 100 µM (inactive)
- GI50 (CCRF-CEM): 60.1 µM (inactive)
- GI50 (UO-31): 36.8 µM (inactive)
- GI50 (MOLT-4): 35.9 µM (inactive)
- GI50 (SNB-19): > 100 µM (inactive)
- GI50 (OVCAR-5): > 100 µM (inactive)
- GI50 (HCT-15): 44.6 µM
- GI50 (NCI-H460): 65.2 µM (inactive)
- GI50 (KM12): 57.8 µM (inactive)
- GI50 (SF-295): 40.1 µM (inactive)
- GI50 (A498): 49.2 µM (inactive)
- GI50 (HL-60): 76.7 µM (inactive)
- GI50 (COLO 205): > 100 µM (inactive)
- GI50 (TK-10): 77.4 µM (inactive)
- GI50 (RXF 631): > 100 µM (inactive)
- GI50 (U-251): > 100 µM (inactive)
- GI50 (HOP-18): > 100 µM (inactive)
- GI50 (HOP-62): > 100 µM (inactive)
- GI50 (SNB-75): > 100 µM (inactive)
- GI50 (M19-MEL): > 100 µM (inactive)
- GI50 (EKVX): 52.5 µM (inactive)
- GI50 (OVCAR-3): > 100 µM (inactive)
- GI50 (ACHN): 48.3 µM (inactive)
- GI50 (SK-OV-3): > 100 µM (inactive)
- GI50 (NCI-H23): > 100 µM (inactive)
- GI50 (SF-539): 88.9 µM (inactive)
- GI50 (RPMI-8226): 54.1 µM (inactive)
- GI50 (DMS-114): 59.4 µM (inactive)
- GI50 (A549): 40.7 µM (inactive)
- GI50 (SK-MEL-5): 50.5 µM (inactive)
- GI50 (RXF 393): 30.4 µM (inactive)
- GI50 (UACC-257): 81.3 µM (inactive)
- GI50 (KM-20L2): 73.1 µM (inactive)
- GI50 (Malme-3M): > 100 µM (inactive)
- GI50 (HOP-92): > 100 µM (inactive)
- GI50 (SN12C): > 100 µM (inactive)
- GI50 (IGROV-1): > 100 µM (inactive)
- GI50 (HCC 2998): 78.3 µM (inactive)
- GI50 (LOX IMVI): 64.7 µM (inactive)
- GI50 (UACC-62): > 100 µM (inactive)
- GI50 (CAKI-1): > 100 µM (inactive)
